Test results reported in patent US8268635B2, “Methods of identifying agents that selectively activate p38 and/or NKkB signaling” (priority 2006, dated 2012).
Where no end group is shown, it is not given here.

Legend:
[1] = system: ERK1/ERK2; experiment: ERK1/ERK2 dual phosphorylation in HUVEC (western blot); type: cell-based, human; settings: 15 min; TNF 100 U/ml, TNF70-80 10 μM
Description: (§1) The level of myelin basic protein phosphorylation was quantitated by an Instant Imager.
Western blot analysis was conducted as described previously (Hii, C. S., Huang, Z. H., Bilney, A., Costabile, M., Murray, A. W., Rathjen, D. A., Der, C. J., and Ferrante, A. (1998) J. Biol. Chem. 273: 19277-19282). Briefly, equal amounts of denatured protein from each lysate were separated by 12% SDS polyacrylamide gel electrophoresis (PAGE). The proteins were electrophoretically transferred to nitrocellulose membranes (Schleicher and Schuell, Keene, N. H., USA)(3 h at 40V). […] Immune complexes were visualised by enhanced chemiluminescence (Hii, C. S., Huang, Z. H., Bilney, A., Costabile, M., Murray, A. W., Rathjen, D. A., Der, C. J., and Ferrante, A. (1998) J. Biol. Chem. 273: 19277-19282).

[2] = system: p38; experiment: p38 activity in HUVEC (immunoprecipitation, myelin basic protein substrate); type: cell-based, human; settings: 5 min; TNF 1,000 U/ml, peptides 10 μM
Description: as §1
KHS (hereon referred to as “GCKR”) activity was assayed as described previously using myelin basic protein as a substrate (Shi, C. S., Leonardi, A., Kyriakis, J., Siebenlist, U., and Kerhl, J. H. (1999) J. Immunol. 163: 3279-3285). ASK-1 activation was determined in immunoprecipitates of ASK-1 by autophosphorylation (Kyriakis, J. M., and Auruch, J. (2001) Physiol. Rev. 81: 807-869). p38 and ERK activities were determined as described using myelin basic protein as a substrate (Hii, C. S., Huang, Z. H., Bilney, A., Costabile, M., Murray, A. W., Rathjen, D. A., Der, C. J., and Ferrante, A. (1998) J. Biol. Chem. 273: 19277-19282). […] A solid phase assay using glutathione-S-transferase (GST)-conjugated-jun (1-79) was employed to assay JNK activity (Hii, C. S., Huang, Z. H., Bilney, A., Costabile, M., Murray, A. W., Rathjen, D. A., Der, C. J., and Ferrante, A. (1998) J. Biol. Chem. 273: 19277-19282). Phosphorylated ASK-1, myelin basic protein and GST-jun (1-79) were fractionated on 8, 16 and 12% SDS polyacrylamide gels, respectively, and the bands were detected and radioactivity determined using an Instant Imager (Packard Instruments, Canberra, Australia).

[3] = system: p38; experiment: p38 activity in HEK293T cells; type: cell-based, human
Description: HEK 293T cells were stably transfected with wild-type TRAF2, a dominant-negative TRAF2 (ΔTRAF2) or an empty vector. TNF70-80 (10 μM) was added and the cells were incubated for 5 min. at 37° C., lysed and p38 immunoprecipitated. Kinase activity was assayed using myelin basic protein as a substrate. The data (representative digital radiogram and profile of phosphorylated MBP) shown are representative of 2 experiments.
HEK 293T cells were obtained from the American Type Culture Collection and maintained in DMEM, supplemented with 10% fetal calf serum. Cells, stably transfected with pRK5-TRAF2-FLAG, pRK5-TRAF287-501-FLAG (Dr. V. Dixit, Genentech Inc., South San Francisco) or an empty plasmid using LipofectAMINE 2000, were obtained from Dr P Xia, Hanson Institute, Adelaide, Australia) (Xia, P., Wang, L., Moretti, P. A., Albanese, N., Chai, F., Pitson, S. M., D'Andrea, R. J., Gamble, J. R., and Vadas, M. A. (2002) J. Biol. Chem. 277: 7996-8003).
Lysates containing equal amounts of protein (0.5-1 mg) were precleared with protein A sepharose (4° C.) before being incubated with anti-KHS, anti-p38, anti-ASK-1 or anti-ERK2 antibody (3 μg/sample). After mixing for 2 h (4° C.), the immune complexes were precipitated by the addition of protein A sepharose. The immunoprecipitates were collected by centrifugation (16,000 g×15s) and washed once with buffer A (4° C.), once with buffer B (10 mM Tris/HCl, pH 7.6, 100 mM NaCl, 1 mM EDTA and 100 μM […] and once with assay buffer (Hii, C. S., Huang, Z. H., Bilney, A., Costabile, M., Murray, A. W., Rathjen, D. A., Der, C. J., and Ferrante, A. (1998) J. Biol. Chem. 273: 19277-19282).
KHS (hereon referred to as “GCKR”) activity was assayed as described previously using myelin basic protein as a substrate (Shi, C. S., Leonardi, A., Kyriakis, J., Siebenlist, U., and Kerhl, J. H. (1999) J. Immunol. 163: 3279-3285). ASK-1 activation was determined in immunoprecipitates of ASK-1 by autophosphorylation (Kyriakis, J. M., and Auruch, J. (2001) Physiol. Rev. 81: 807-869). p38 and ERK activities were determined as described using myelin basic protein as a substrate (Hii, C. S., Huang, Z. H., Bilney, A., Costabile, M., Murray, A. W., Rathjen, D. A., Der, C. J., and Ferrante, A. (1998) J. Biol. Chem. 273: 19277-19282). […] A solid phase assay using glutathione-S-transferase (GST)-conjugated-jun (1-79) was employed to assay JNK activity (Hii, C. S., Huang, Z. H., Bilney, A., Costabile, M., Murray, A. W., Rathjen, D. A., Der, C. J., and Ferrante, A. (1998) J. Biol. Chem. 273: 19277-19282). Phosphorylated ASK-1, myelin basic protein and GST-jun (1-79) were fractionated on 8, 16 and 12% SDS polyacrylamide gels, respectively, and the bands were detected and radioactivity determined using an Instant Imager (Packard Instruments, Canberra, Australia). […]

[4] = system: macrophage; settings: previous comparisons; cited from earlier work

PSTHVLITHTI-OH [TNF70-80]
dual phosphorylation of the ERKs in HUVEC [1]: caused only negligible phosphorylation of the ERKs
activity of p38 in HUVEC [2]: stimulated the activity of p38
activity of p38 in HEK293T cells [3]: able to stimulate the activity of p38
p38 activation in HEK293T cells expressing dominant-negative ΔTRAF2 ([3]; TNF70-80 10 μM, 5 min): substantial attenuation of this response
p38 activation in HEK293T cells over expressing TRAF2 compared to empty plasmid ([3]; TNF70-80 10 μM, 5 min): enhanced the activation of p38 by TNF70-80
increase of p38 activity over control in HEK293T cells ([3]; treatment for 5 min, p<0.05, n=3): 243+27 % over control
concentration that equates to 1000 U/ml of TNF in ability to stimulate nitric oxide production in macrophage [4]: 5.0 µg/mL
